Columns and labels:
[1] = Mean concentration required for the compound to inhibit tumor activity in 20 different cell lines was determined; type: functional
MOLT-4 [2] = assay: Induced cell death in Molt-4 cell line at a dose of E-9 M after 28 hour of incubation; type: functional, Homo sapiens
MOLT-4 [3] = assay: Induced cell death in Molt-4 cell line at a dose of E-9 M after 3 hour of incubation; type: functional, Homo sapiens
MOLT-4 [4] = assay: Induced cell death in Molt-4 cell line at a dose of E-9 M after 5 hour of incubation; type: functional, Homo sapiens
MOLT-4 [5] = assay: Induced cell death in Molt-4 cell line at a dose of E-9 M after 8 hour of incubation; type: functional, Homo sapiens
MOLT-4 [6] = assay: Induced cell death in Molt-4 cell line at a dose of E-10 M after 1 hour of incubation; type: functional, Homo sapiens
MOLT-4 [7] = assay: Induced cell death in Molt-4 cell line at a dose of E-10 M after 20 hour of incubation; type: functional, Homo sapiens
MOLT-4 [8] = assay: Induced cell death in Molt-4 cell line at a dose of E-10 M after 28 hour of incubation; type: functional, Homo sapiens
MOLT-4 [9] = assay: Induced cell death in Molt-4 cell line at a dose of E-10 M after 3 hour of incubation; type: functional, Homo sapiens
MOLT-4 [10] = assay: Induced cell death in Molt-4 cell line at a dose of E-10 M after 5 hour of incubation; type: functional, Homo sapiens
MOLT-4 [11] = assay: Induced cell death in Molt-4 cell line at a dose of E-10 M after 8 hour of incubation; type: functional, Homo sapiens
MOLT-4 [12] = assay: Induced cell death in Molt-4 cell line at a dose of E-8 M after 1 hour of incubation; type: functional, Homo sapiens
MOLT-4 [13] = assay: Induced cell death in Molt-4 cell line at a dose of E-8 M after 20 hour of incubation; type: functional, Homo sapiens
MOLT-4 [14] = assay: Induced cell death in Molt-4 cell line at a dose of E-8 M after 28 hour of incubation; type: functional, Homo sapiens
MOLT-4 [15] = assay: Induced cell death in Molt-4 cell line at a dose of E-8 M after 3 hour of incubation; type: functional, Homo sapiens
MOLT-4 [16] = assay: Induced cell death in Molt-4 cell line at a dose of E-8 M after 8 hour of incubation; type: functional, Homo sapiens
MOLT-4 [17] = assay: Induced cell death in Molt-4 cell line at a dose of E-9 M after 1 hour of incubation; type: functional, Homo sapiens
MOLT-4 [18] = assay: Induced cell death in Molt-4 cell line at a dose of E-9 M after 20 hour of incubation; type: functional, Homo sapiens
MOLT-4 [19] = assay: Induced cell death in Molt-4 cell line at a dose of E-8 M after 5 hour of incubation; type: functional, Homo sapiens

| SMILES | IC50 [1] | Viability (MOLT-4 [2]) | Viability (MOLT-4 [3]) | Viability (MOLT-4 [4]) | Viability (MOLT-4 [5]) | Viability (MOLT-4 [6]) | Viability (MOLT-4 [7]) | Viability (MOLT-4 [8]) | Viability (MOLT-4 [9]) | Viability (MOLT-4 [10]) | Viability (MOLT-4 [11]) | Viability (MOLT-4 [12]) | Viability (MOLT-4 [13]) | Viability (MOLT-4 [14]) | Viability (MOLT-4 [15]) | Viability (MOLT-4 [16]) | Viability (MOLT-4 [17]) | Viability (MOLT-4 [18]) | Viability (MOLT-4 [19]) |
| --- | --- | --- | --- | --- | --- | --- | --- | --- | --- | --- | --- | --- | --- | --- | --- | --- | --- | --- | --- |
| COC(=O)[C@]1(C)Nc2c(O)cc3c(c2C1=O)[C@H](CCl)CN3C(=O)c1cc2cc(OC)c(OC)c(OC)c2[nH]1 | 20 nM | – | – | – | – | – | – | – | – | – | – | – | – | – | – | – | – | – | – |
| COC(=O)c1cc2c([nH]1)C(=O)C=C1N(C(=O)c3cc4cc(OC)c(OC)c(OC)c4[nH]3)C[C@H]3C[C@]123 [DUOCARMYCIN] | 0.1 nM | 12% | 95% | 85% | 52% | 95% | 58% | 58% | 95% | 90% | 65% | 95% | 10% | 10% | 92% | 42% | 95% | 15% | 80% |
